Results from US20170049908A1 (priority 2015, published 2017).
Where two headings read alike, the source gives them in different places.

How the values were obtained:
Ramos cells [1] = test: cells; conditions: Homo sapiens, 72 h, read-out: EC50 in picoM, Ramos
SU-DHL-8 cells [2] = test: cells; conditions: Homo sapiens, SU-DHL-8, 72 h, read-out: EC50 in picoM, SUDHL8
Ramos cells [3] = conditions: for EC50: read-out: EC50 in picoM, Ramos, Table 3, agents and agent-linker intermediates, 3 days incubation
SU-DHL-8 cells [4] = conditions: for EC50: read-out: EC50 in picoM, SUDHL8, Table 3, agents and agent-linker intermediates, 3 days incubation
[5] = test system: HL60, U937, MV411, Hut78, H929, and RAMOS; test: Cytotoxic activity on six human blood cancer cell types with and without ATRA (overall statements); type: cell-based; conditions: all cell lines tested except RAMOS
Protocol: Agent loading (e.g., “n” of Formula (I)) was determined to be about 4.
In this study and as determined by antibody cell staining, and with the exception of HL-60 cells, all cells expressed various levels of cell surface CD38 prior to ATRA addition.

Row | SMILES | EC50 (Ramos cells [1]) [nM] | EC50 (SU-DHL-8 cells [2]) [nM] | further results
1 | C[C@]12CC[C@H](O)C[C@H]1CC[C@@H]1[C@@H]2CC[C@]2(C)[C@@H](C3=CC(=O)OC3)CC[C@]12O [Digitoxigenin, reference compound] | > 50 | > 50 | –
2 | C[C@]1(OC(=O)NCCCN2CCN(CCCN)CC2)CC[C@@]2(C)[C@H](CC[C@@H]3[C@@H]2CC[C@]2(C)[C@@](C)(C4=CC(=O)OC4)CC[C@]32O)C1 [CEN-381, 4-(3-{(1S,2S,5S,7R,10R,11S,14R,15R)-11-Hydroxy-2,5,14,15-tetramethyl-14-(5-oxo-2H-fur-3-yl)tetracyclo[8.7.0.02, 7.011, 15]heptadec-5-yloxycarbonylamino}propyl)-1-(3-aminopropyl)piperazine] | > 50 | > 50 | –
3 | C[C@]12CC[C@H](OC3OC[C@H](N)[C@@H](O)[C@@H]3O)C=C1CC[C@@H]1[C@@H]2CC[C@]2(C)[C@@H](c3ccc(=O)oc3)CC[C@]12O (stereo partly drawn) [CEN09-106, Scillarenin-4-amino-4-deoxy-L-xylopyranoside] | – | – | EC50 (Ramos cells [3]): 1.9 nM; EC50 (SU-DHL-8 cells [4]): 2.07 nM
4 | C[C@]12CC[C@H](OC(=O)NCCCNCCCN)C[C@H]1CC[C@@H]1[C@@H]2CC[C@]2(C)[C@H](c3ccc(=O)oc3)CC[C@]12O [CEN-373, 5-{(1S,2S,5S,7R,10R,11S,14S,15R)-5-[3-(3-Aminopropylamino)propylaminocarbonyloxy]-11-hydroxy-2,15-dimethyltetracyclo[8.7.0.02, 7.011, 15]heptadec-14-yl}-2-pyranone] | 4 | 5.9 | –
5 | C[C@]1(OC(=O)NCCCN2CCN(CCCN)CC2)CC[C@@]2(C)[C@H](CC[C@@H]3[C@@H]2CC[C@]2(C)[C@](C)(c4ccc(=O)oc4)CC[C@]32O)C1 [CEN-371, 4-(3-{(1S,2S,5S,7R,10R,11S,14S,15R)-11-Hydroxy-2,5,14,15-tetramethyl-14-(6-oxo-3-pyranyl)tetracyclo[8 0.7.0.02, 7.011, 15]heptadec-5-yloxycarbonylamino}propyl)-1-(3-aminopropyl)piperazine] | – | – | cytotoxic effect in Ramos cells, in words (Ramos cells [3]; FIG. 4 legend, unconjugated antibody, linker-agent and agents): modestly active; EC50 (Ramos cells [3]): 7.81 nM; cytotoxic effect in SU-DHL-8 cells, in words (SU-DHL-8 cells [4]; FIG. 2 and FIG. 3 legends, unconjugated antibody, linker-agent and agents): modestly active; EC50 (SU-DHL-8 cells [4]): 11 nM
6 | CC1=C(/C=C/C(C)=C/C=C/C(C)=C/C(=O)O)C(C)(C)CCC1 [ATRA, all-trans-retinoic acid] | – | – | effect of ATRA alone on cell growth [5]: slowed cell growth
7 | CN(CCCN)CCCNC(=O)O[C@H]1CC[C@@]2(C)[C@H](CC[C@@H]3[C@@H]2CC[C@]2(C)[C@H](c4ccc(=O)oc4)CC[C@]32O)C1 [CEN-372, 5-[(1S,2S,5S,7R,10R,11S,14S,15R)-5-{3-[N-Methyl(3-aminopropyl)amino]propylaminocarbonyloxy}-11-hydroxy-2,15-dimethyltetracyclo[8.7.0.02, 7.011, 15]heptadec-14-yl]-2-pyranone] | 3.6 | 4.4 | –
8 | C[C@]12CC[C@H](O)C[C@H]1CC[C@@H]1[C@@H]2CC[C@]2(C)[C@@H](c3ccc(=O)oc3)CC[C@]12O [Bufalin, reference compound] | 7.3 | 16 | cytotoxic effect in Ramos cells, in words (Ramos cells [3]): modestly active; cytotoxic effect in SU-DHL-8 cells, in words (SU-DHL-8 cells [4]): modestly active
